Source: patent US20250339409A1, “USES OF PAN BET INHIBITORS” (VYNE THERAPEUTICS INC., priority 2021, published 2025)

Test system: melanin in basal layers of RHE
Test: RHE vitiligo model: melanin content and localization by Fontana Masson staining
Format: cell-based, human
Source text: Melanin deposition on 6 μm paraffin sections of each epidermis (n=3) are highlighted through staining with Fontana Masson reagents (VWR—VWRK641295, VWRK641311; Klinipath—641215). Slides are mounted with specific medium and examined with a Nikon Eclipse (Ni-E) photomicroscope coupled to a numerical camera (DS-Ri2)
For the melanin quantification, three images of each epidermis are taken and analysed using the NIS-Element AR software (Nikon). For the quantification of melanin, a region of interest (ROI) is first defined and measured in the epidermis. This region includes only the basal layers. Then, two measures are taken by the software in this ROI. The first one represents the labelled surface on the ROI, and thus the area occupied by the melanin in the ROI. The second one corresponds to the global intensity of the staining in the ROI, reflecting a lighter or darker melanin. The relative quantification of melanin in the ROI is then performed by multiplying these two measures. To normalize the results to a given surface, this value was then divided by the surface of the ROI.
Formulations containing four doses of BETi1 the BETi1 vehicle (placebo), were evaluated in RHE TNF-α/IFN-γ vitiligo model as described Experimental section Method F and representative images of […] epidermis sections are shown in FIG. 6A-G. The images according to this method are consistent with the images with H/E stained epidermis sections and shown in FIG. 4A-H.
Results of the quantification of melanin in basal layers of epidermis stimulated or not with the cytokine cocktail to induce melanocytorhagy and treated with the test items are shown in FIG. 6H. The results are expressed with normalization to the surface of region of interest (ROI) corresponding to the 2-3 basal layers of the RHEs. […] As for TRP-1 staining, the effects of the ruxolitinib cream at 1% on melanin content could not be assessed given that the sections have detached from the glass slides during the staining process (probably without being bound by any theory may be due to the bad structure of the epidermis).

**Q.** What does the source list for Cn1cc(-c2cccc(O)c2Oc2ccccc2)c2cc[nH]c2c1=O [BETi1]?
**A.** melanin retained relative to unstimulated control (basal layers of RHE): approximately 75%; residual melanin levels, % of stimulated/untreated control (basal layers of RHE): about 367%; melanin content in the basal layers (stimulated RHE, vs vehicle): significantly increase the melanin content in the basal layers
